“Also recorded” adds a separate entry of the source.
Experiments:
[1] = test system: P. aeruginosa mutant strain TTD2 biofilm; test: Biofilm killing assessed by XTT absorbance, mutant strain TTD2; assay type: cell-based; details: strain TTD2 (contains gentamicin cassette), 48 h biofilm
Method: (§1) Biofilm Growth Conditions. Isolates were propagated in Mueller-Hinton broth (MHB). Flasks containing liquid medium (20 ml) were inoculated with a loopful of cells from MHB agar plates containing freshly grown isolates, and incubated overnight in an orbital shaker (100 rpm) at 37° C. Cells were harvested and resuspended in MHB at a cellular density equivalent to 1.0×10^6 cells per milliliter. Biofilms were formed on the pegs of the Calgary Biofilm Device (CBD; MBE™ Biofilm Technologies, Ltd., Edmonton AB), described in Ceri et al. (Ceri et al., J. Clin. Microbiol., 37(6):1771-6, 1999). The device consists of 96 conical pegs attached to a plastic lid. […]
(§2) Optimizing XTT Assay. In order to optimize the quantities of 2,3-bis[2-methyloxy-4-nitro-5-sulfophenyl]-2H-tetrazolium-5-carboxanilide (XTT; Sigma) and menadione required for quantifying biofilm metabolic activity, varying concentrations were tested. […] The concentration of menadione (2-methyl-1,4-naphthoquinone; Sigma), the electron-coupling agent, was varied to establish the optimal molarity in respect to maximal absorbance readings. […] The change in XTT absorbance at 490 nm was assessed spectrophotometerically using an automated microtiter plate reader. It was determined that 75 μM gave the optimal change in absorbance after 2 h (FIG. 7). […]
(§3) Assessment of Biofilm Killing Kinetics Using XTT. […] XTT absorbance readings were taken at 2 h and then at 24 h. […]

[2] = test system: P. aeruginosa mutant strain 4G6 biofilm; test: Biofilm killing assessed by XTT absorbance, mutant strain 4G6; assay type: cell-based; details: strain 4G6 (contains gentamicin cassette), 48 h biofilm
Method: as §1, §2, §3

gentamicin
Susceptibility as assessed by XTT absorbance [1]: less susceptible; also recorded: decreased susceptibility
Susceptibility as assessed by XTT absorbance [2]: less susceptible; also recorded: decreased susceptibility
